Where “and” joins values, the source holds several entries; their conditions need not be identical. Equal entries are not always repeated. Toxic doses and inconclusive results are not listed. The calls were made as follows: active = survival T/C of 150% or more; inactive = T/C below 125% in these data.
Tested on: P388 leukemia ip, CD2F1 mice, survival T/C
Assay: NCI In Vivo Anticancer Drug Screen. Data for tumor model P388 Leukemia (intraperitoneal) in CD2F1 (CDF1) mice
Details: endpoint: median survival time, higher = longer survival
Outline: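 Mice carrying the transplanted tumor received test compound or vehicle. Survival was recorded in each group, and the value is the treated-group measurement divided by that of the vehicle-treated control group.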

[1] = dose: 50.0 mg/kg/injection, schedule: Q01DX009 (ip), vehicle: saline with Tween-80
[2] = dose: 100.0 mg/kg/injection, schedule: Q01DX009 (ip), vehicle: saline with Tween-80
[3] = dose: 200.0 mg/kg/injection, schedule: Q01DX009 (ip), vehicle: saline with Tween-80
[4] = dose: 400.0 mg/kg/injection, schedule: Q01DX009 (ip), vehicle: saline with Tween-80
[5] = dose: 200.0 mg/kg/injection, schedule: Q04DX003 (ip), vehicle: saline with Tween-80
[6] = dose: 50.0 mg/kg/injection, schedule: Q01DX005 (ip), vehicle: saline
[7] = dose: 50.0 mg/kg/injection, schedule: Q01DX005 (ip), vehicle: Klucel (hydroxypropylcellulose) (HPC)
[8] = dose: 100.0 mg/kg/injection, schedule: Q01DX005 (ip), vehicle: Klucel (hydroxypropylcellulose) (HPC)
[9] = dose: 200.0 mg/kg/injection, schedule: Q01DX005 (ip), vehicle: Klucel (hydroxypropylcellulose) (HPC)
[10] = dose: 50.0 mg/kg/injection, schedule: Q01DX009 (ip), vehicle: Klucel (hydroxypropylcellulose) (HPC)
[11] = dose: 100.0 mg/kg/injection, schedule: Q01DX009 (ip), vehicle: Klucel (hydroxypropylcellulose) (HPC)
[12] = dose: 200.0 mg/kg/injection, schedule: Q01DX009 (ip), vehicle: Klucel (hydroxypropylcellulose) (HPC)

Measured: T/C

O=C1C=CC(O)C1(O)CO (stereo unspecified)
inactive: dose: 2.5 mg/kg/injection, schedule: Q01DX009 (ip), vehicle: saline + alcohol 98 % of control | dose: 5.0 mg/kg/injection, schedule: Q01DX009 (ip), vehicle: saline + alcohol 100 % of control | dose: 10.0 mg/kg/injection, schedule: Q01DX009 (ip), vehicle: saline + alcohol 105 % of control | dose: 20.0 mg/kg/injection, schedule: Q01DX009 (ip), vehicle: saline + alcohol 101 % of control

C=Cn1ccnc1C(O)(c1ccc(Cl)cc1)c1ccc(Cl)cc1
inactive: [1] 92 % of control and 94 % of control | [2] 100 % of control and 94 % of control | [3] 94 % of control | [4] 95 % of control and 98 % of control

CCN(CC)C(=O)Cn1cc([N+](=O)[O-])sc1=NC(=O)c1ccco1
inactive: dose: 100.0 mg/kg/injection, schedule: Q01DX001 (ip), vehicle: Klucel (hydroxypropylcellulose) (HPC) 100 % of control | dose: 200.0 mg/kg/injection, schedule: Q01DX001 (ip), vehicle: Klucel (hydroxypropylcellulose) (HPC) 101 % of control

CO/C=C1\CC(=O)N(c2ccccc2)C1=O
inactive: dose: 100.0 mg/kg/injection, schedule: Q04DX003 (ip), vehicle: saline 106 % of control | dose: 200.0 mg/kg/injection, schedule: Q04DX003 (ip), vehicle: saline 100 % of control | dose: 400.0 mg/kg/injection, schedule: Q04DX003 (ip), vehicle: saline 97 % of control

C=C1CC2(CCOc3ccccc32)OC1=O (stereo unspecified)
inactive: dose: 25.0 mg/kg/injection, schedule: Q04DX003 (ip), vehicle: saline with Tween-80 105 % of control | dose: 50.0 mg/kg/injection, schedule: Q04DX003 (ip), vehicle: saline with Tween-80 115 % of control | dose: 100.0 mg/kg/injection, schedule: Q04DX003 (ip), vehicle: saline with Tween-80 108 % of control and 117 % of control | [5] 90 % of control

C=CC1(C)CCC2C(=CCC3C2(C)CC(O)C(O)C3(C)COC2OC(CO)C(O)C(O)C2O)C1 (stereo unspecified)
inactive: dose: 1.5 mg/kg/injection, schedule: Q01DX009 (ip), vehicle: Klucel (hydroxypropylcellulose) (HPC) 103 % of control | dose: 3.0 mg/kg/injection, schedule: Q01DX009 (ip), vehicle: Klucel (hydroxypropylcellulose) (HPC) 106 % of control | dose: 6.0 mg/kg/injection, schedule: Q01DX009 (ip), vehicle: Klucel (hydroxypropylcellulose) (HPC) 116 % of control | dose: 12.0 mg/kg/injection, schedule: Q01DX009 (ip), vehicle: Klucel (hydroxypropylcellulose) (HPC) 108 % of control | dose: 12.5 mg/kg/injection, schedule: Q01DX009 (ip), vehicle: saline 99 % of control | dose: 24.0 mg/kg/injection, schedule: Q01DX009 (ip), vehicle: Klucel (hydroxypropylcellulose) (HPC) 108 % of control | dose: 25.0 mg/kg/injection, schedule: Q01DX009 (ip), vehicle: saline 100 % of control | dose: 50.0 mg/kg/injection, schedule: Q01DX009 (ip), vehicle: saline 98 % of control | dose: 100.0 mg/kg/injection, schedule: Q01DX009 (ip), vehicle: saline 93 % of control

CCOC1OCN(CCc2ccccc2)CC1(C)C (stereo unspecified)
inactive: [1] 108 % of control | [2] 119 % of control | [3] 118 % of control

C[C@H]1CC(=O)C[C@H]2CCCCN21
inactive: dose: 12.5 mg/kg/injection, schedule: Q01DX005 (ip), vehicle: saline 103 % of control | dose: 25.0 mg/kg/injection, schedule: Q01DX005 (ip), vehicle: saline 105 % of control | [6] 101 % of control

COc1cc(NC(C)CN(CC(C)C)C(C)C)c2ncccc2c1 (stereo unspecified)
inactive: [6] 104 % of control | dose: 100.0 mg/kg/injection, schedule: Q01DX005 (ip), vehicle: saline 98 % of control

Cc1nc2ncn(-c3ccccc3)c2c(=O)n1C
inactive: [7] 95 % of control | [8] 90 % of control | [9] 95 % of control

COC(=O)C(Br)c1cccc(OC)c1 (stereo unspecified)
inactive: dose: 132.0 mg/kg/injection, schedule: Q04DX003 (ip), vehicle: saline with Tween-80 100 % of control | dose: 178.0 mg/kg/injection, schedule: Q01DX009 (ip), vehicle: saline with Tween-80 100 % of control | [5] 100 % of control | dose: 266.0 mg/kg/injection, schedule: Q01DX009 (ip), vehicle: saline with Tween-80 100 % of control | dose: 300.0 mg/kg/injection, schedule: Q04DX003 (ip), vehicle: saline with Tween-80 100 % of control | [4] 100 % of control

O=C1C(Cl)=C(NC(=O)C2CCCCC2)C(=O)C(Cl)=C1NC(=O)C1CCCCC1
inactive: dose: 25.0 mg/kg/injection, schedule: Q01DX005 (ip), vehicle: Klucel (hydroxypropylcellulose) (HPC) 90 % of control | [7] 90 % of control | [8] 88 % of control | [9] 89 % of control

CCN(CC)[P+](C1=C(Cl)C(=O)C(Cl)=C(Cl)C1=O)(N(CC)CC)N(CC)CC
inactive: dose: 12.5 mg/kg/injection, schedule: Q01DX009 (ip), vehicle: saline with Tween-80 105 % of control | dose: 25.0 mg/kg/injection, schedule: Q01DX009 (ip), vehicle: saline with Tween-80 93 % of control | [1] 103 % of control

CC(Nc1cnccn1)Nc1cnccn1
inactive: [7] 102 % of control | [8] 105 % of control | [9] 104 % of control

CCC(C)n1c(C)nc2cc(C(F)(F)F)cc(N)c21 (stereo unspecified)
inactive: dose: 50.0 mg/kg/injection, schedule: Q01DX009 (ip), vehicle: saline + alcohol 99 % of control | dose: 100.0 mg/kg/injection, schedule: Q01DX009 (ip), vehicle: saline + alcohol 99 % of control

Cc1sc2ccccc2[n+]1CCC(=O)O
inactive: [1] 100 % of control | [2] 100 % of control | [3] 98 % of control | [4] 98 % of control

CCCCN1C(=O)c2ccc(N)cc2C1=O
inactive: [10] 100 % of control | [11] 97 % of control | [12] 110 % of control

CCOC(=O)C(=CCBr)C(=O)OCC
inactive: dose: 1.56 mg/kg/injection, schedule: Q01DX009 (ip), vehicle: other 105 % of control | dose: 3.13 mg/kg/injection, schedule: Q01DX009 (ip), vehicle: other 110 % of control | dose: 6.25 mg/kg/injection, schedule: Q01DX009 (ip), vehicle: other 118 % of control | dose: 12.5 mg/kg/injection, schedule: Q01DX009 (ip), vehicle: other 106 % of control | dose: 25.0 mg/kg/injection, schedule: Q01DX009 (ip), vehicle: other 102 % of control

COC(=O)N1C(c2ccccc2)C=CC(c2ccccc2)N1C(=O)OC (stereo unspecified)
inactive: dose: 60.0 mg/kg/injection, schedule: Q01DX005 (ip), vehicle: Klucel (hydroxypropylcellulose) (HPC) 103 % of control | dose: 120.0 mg/kg/injection, schedule: Q01DX005 (ip), vehicle: Klucel (hydroxypropylcellulose) (HPC) 96 % of control | dose: 240.0 mg/kg/injection, schedule: Q01DX005 (ip), vehicle: Klucel (hydroxypropylcellulose) (HPC) 96 % of control

CCOc1cc(=O)cc2n(-c3cc(OCC)c(OC)c(OCC)c3)c3ccccc3nc1-2
inactive: dose: 50.0 mg/kg/injection, schedule: Q01DX009 (ip), vehicle: suspension in saline 101 % of control | dose: 100.0 mg/kg/injection, schedule: Q01DX009 (ip), vehicle: suspension in saline 101 % of control | dose: 200.0 mg/kg/injection, schedule: Q01DX009 (ip), vehicle: suspension in saline 90 % of control

[N-]=[N+]=N[Si](c1ccccc1)(c1ccccc1)c1ccccc1
inactive: [10] 103 % of control | [11] 101 % of control | [12] 103 % of control

Source: PubChem BioAssay AID330 (DTP/NCI, 2004)
